# Measurements reported in ChEMBL document CHEMBL1158090, “Cytotoxic cycloartane triterpene saponins from Actaea asiatica” (J Nat Prod, 2006).
# The source made the active and inactive calls. The rule behind the calls is not given here.
# Legend:
# Format in all cases: functional, cell-based
# [1] = test system: HepG2; assay: (§1) Cytotoxicity against human Hep G2 cells
# [2] = test system: MCF7; assay: Cytotoxicity against human MCF7 cells
# [3] = as §1; details: HepG2
SMILES,Activity [1],Activity [2],IC50 [3] [µM],IC50 [2] [µM]
C[C@@H]1C[C@]2(OCC[C@]3(C)O[C@H]23)O[C@H]2C[C@@]3(C)C4=CC[C@H]5C(C)(C)[C@@H](O[C@@H]6OC[C@@H](O)[C@H](O)[C@H]6O)CC[C@@]56C[C@@]46CC[C@]3(C)[C@@H]12,inactive,inactive,–,–
CC(=O)O[C@@H]1C[C@@]23C[C@@]24CC[C@H](O[C@@H]2OC[C@@H](O)[C@H](O)[C@H]2O)C(C)(C)[C@@H]4CC=C3[C@]2(C)C[C@@H]3OC(C(=O)C(C)C)=C[C@@H](C)[C@@H]3[C@@]12C [ASIATICOSIDE B],–,–,9.74,8.32
CC(=O)O[C@@H]1C[C@@]23C[C@@]24CC[C@H](O[C@@H]2OC[C@@H](O)[C@H](O)[C@H]2O)C(C)(C)[C@@H]4CC[C@H]3[C@]2(C)C[C@@H]3OC(C(=O)C(C)C)=C[C@@H](C)[C@@H]3[C@@]12C [ASIATICOSIDE A],–,–,9.9,9.78
